Assay results: patent US20240034737A1, “Heterocyclic Derivatives as P2X7 Receptor Antagonists” (BREYE THERAPEUTICS APS, priority 2020, published 2024)
pIC50: −log10 of the molar value.

Legend:
P2X7 receptor = P2X7 receptor (Homo sapiens (Human), UniProt Q99572); experiment: Human P2X7 channel calcium-influx assay (Fluo-8 NW, FLIPR TETRA, Bz-ATP stimulation); format: cell-based; conditions: HEK-293 cells stably transfected with P2X7 receptor, Low Divalent Cation Assay Buffer, read-out: hP2X7 IC50
Sequence of P2X7 receptor (Q99572 whole entry): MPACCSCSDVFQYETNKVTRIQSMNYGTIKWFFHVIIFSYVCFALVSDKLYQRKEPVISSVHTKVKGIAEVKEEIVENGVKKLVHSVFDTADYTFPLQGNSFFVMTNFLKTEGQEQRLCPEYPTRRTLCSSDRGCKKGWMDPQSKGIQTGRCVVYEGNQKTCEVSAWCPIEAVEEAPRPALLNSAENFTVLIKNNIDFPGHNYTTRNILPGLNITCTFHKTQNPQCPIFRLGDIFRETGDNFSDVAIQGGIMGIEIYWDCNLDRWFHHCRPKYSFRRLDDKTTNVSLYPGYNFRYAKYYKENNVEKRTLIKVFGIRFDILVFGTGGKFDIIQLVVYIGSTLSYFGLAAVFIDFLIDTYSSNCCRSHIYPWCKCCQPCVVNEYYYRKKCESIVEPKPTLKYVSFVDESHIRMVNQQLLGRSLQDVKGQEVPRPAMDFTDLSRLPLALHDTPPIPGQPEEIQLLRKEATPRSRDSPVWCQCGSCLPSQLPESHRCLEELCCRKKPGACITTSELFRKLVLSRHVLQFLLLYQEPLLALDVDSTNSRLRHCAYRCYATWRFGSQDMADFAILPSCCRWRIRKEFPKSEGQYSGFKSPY
Summary of the method: (§1)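 HEK-293 cells stably expressing human or mouse P2X7, preloaded with Fluo-8 NW dye for 1 h at RT. Compounds added, Bz-ATP-evoked Ca2+ influx followed as fluorescence kinetics over 5 min on FLIPR TETRA; A438079 served as reference antagonist.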

CYP4503A4 = CYP4503A4 metabolic induction (mRNA expression) in human cryopreserved platable hepatocytes; format: in vitro ADME; conditions: 10 μM test compound, two days treatment, mRNA by QuantiGene Plex 2.0
Procedure: In Vitro Evaluation of Test Compounds for CYP4503A4 Metabolic Induction Using Human Liver Hepatocytes.
CYP induction assessment was performed using human cryopreserved platable hepatocytes. Test compound was assessed at three or six different concentrations in duplicate.
A sandwich culture of platable cryopreserved hepatocytes was used with one day recovery period after plating. Assessment of cell morphology and confluency was performed using a phase-contrast microscope for representative wells.
The plated hepatocyte cell monolayers were treated with test compound, negative and positive controls for two days changing medium every 24 hours. On the fourth day, assessment of cell morphology and confluency was repeated to ensure cell monolayer integrity. Assessment of cell morphology and confluency was performed using a phase-contrast microscope for representative wells.
Cell monolayers were assessed for test compound cytotoxicity by an adenosine triphosphate (ATP) content assay in a separate plate.
Expression levels of mRNA for CYP1A2, CYP2B6, and CYP3A4 were evaluated by the QuantiGene® Plex 2.0 methodology.

mP2X7 = mP2X7 (Mus musculus (Mouse), UniProt Q9Z1M0); experiment: mP2X7 channel calcium-influx assay (Fluo-8 NW, FLIPR TETRA, Bz-ATP stimulation); format: cell-based
Sequence of mP2X7 (Q9Z1M0 whole entry): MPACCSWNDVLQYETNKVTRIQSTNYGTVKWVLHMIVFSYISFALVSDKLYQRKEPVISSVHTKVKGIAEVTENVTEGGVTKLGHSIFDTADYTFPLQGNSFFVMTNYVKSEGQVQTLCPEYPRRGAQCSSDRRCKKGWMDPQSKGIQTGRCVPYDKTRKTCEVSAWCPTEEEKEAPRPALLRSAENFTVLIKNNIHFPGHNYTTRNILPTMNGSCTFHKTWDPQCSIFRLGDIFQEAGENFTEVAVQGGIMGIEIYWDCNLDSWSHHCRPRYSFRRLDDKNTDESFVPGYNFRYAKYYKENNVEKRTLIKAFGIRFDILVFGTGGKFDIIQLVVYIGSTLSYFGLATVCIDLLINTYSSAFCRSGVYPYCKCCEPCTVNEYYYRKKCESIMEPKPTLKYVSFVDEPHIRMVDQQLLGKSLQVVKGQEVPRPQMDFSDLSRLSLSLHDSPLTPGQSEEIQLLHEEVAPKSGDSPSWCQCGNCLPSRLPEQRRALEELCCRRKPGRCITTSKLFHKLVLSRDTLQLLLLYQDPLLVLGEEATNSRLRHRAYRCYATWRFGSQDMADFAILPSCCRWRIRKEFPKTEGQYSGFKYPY
Summary of the method: as §1

Row | Compound | pIC50 (P2X7 receptor) | CYP4503A4 mRNA fold increase at 10 μM (CYP4503A4) | pIC50 (mP2X7)
1 | O=C(NCC(c1scnc1C(F)F)N1CCC(Oc2nccc(Cl)n2)CC1)c1c(F)cccc1Cl (stereo not drawn) [Example 75, 2-chloro-N-(2-{4-[(4-chloropyrimidin-2-yl)oxy]piperidin-1-yl}-2-[4-(difluoromethyl)-1,3-thiazol-5-yl]ethyl)-6-fluorobenzamide] | 7.27 | 2.2 fold | 7.09
2 | N#Cc1cc(OCC2CCN(C(CNC(=O)c3c(F)cccc3Cl)c3scnc3C(F)F)CC2)ccn1 (stereo not drawn) [Example 110, 2-Chloro-N-[2-(4-{[(2-cyanopyridin-4-yl)oxy]methyl}piperidin-1-yl)-2-[4-(difluoromethyl)-1,3-thiazol-5-yl]ethyl]-6-fluorobenzamide] | 7.39 | 6.5 fold | 7.60
3 | Cc1noc(C)c1COC1CCN(C(CNC(=O)c2c(F)cccc2Cl)c2scnc2C(F)F)CC1 (stereo not drawn) [Example 9, 2-chloro-N-{2-[4-(difluoromethyl)-1,3-thiazol-5-yl]-2-{4-[(dimethyl-1,2-oxazol-4-yl)methoxy]piperidin-1-yl}ethyl}-6-fluorobenzamide] | 7.19 | 2.6 fold | 7.27
4 | Cc1nsc(OC2CCN(C(CNC(=O)c3c(F)cccc3Cl)c3scnc3C(F)F)CC2)n1 (stereo not drawn) [Example 11, 2-Chloro-N-{2-[4-(difluoromethyl)-1,3-thiazol-5-yl]-2-{4-[(3-methyl-1,2,4-thiadiazol-5-yl)oxy]piperidin-1-yl}ethyl}-6-fluorobenzamide] | 7.30 | 7.9 fold | 6.74
5 | O=C(NCC(c1scnc1C(F)F)N1CCC(COc2nc3ccccc3s2)CC1)c1c(F)cccc1Cl (stereo not drawn) [Example 93, N-(2-{4-[(1,3-Benzothiazol-2-yloxy)methyl]piperidin-1-yl}-2-[4-(difluoromethyl)-1,3-thiazol-5-yl]ethyl)-2-chloro-6-fluorobenzamide] | 7.36 | 6.5 fold | 7.64
6 | O=C(NCC(c1scnc1C(F)F)N1CCC(COc2ccnc(F)c2)CC1)c1c(F)cccc1Cl (stereo not drawn) [Example 125, 2-Chloro-N-{2-[4-(difluoromethyl)-1,3-thiazol-5-yl]-2-(4-{[(2-fluoropyridin-4-yl)oxy]methyl}piperidin-1-yl)ethyl}-6-fluorobenzamide] | 7.79 | 5.5 fold | 7.64
7 | O=C(NCC(c1scnc1C(F)F)N1CCC(COc2nccnc2F)CC1)c1c(F)cccc1Cl (stereo not drawn) [Example 106, 2-Chloro-N-{2-[4-(difluoromethyl)-1,3-thiazol-5-yl]-2-(4-{[(3-fluoropyrazin-2-yl)oxy]methyl}piperidin-1-yl)ethyl}-6-fluorobenzamide] | 7.40 | 4.9 fold | 7.52
8 | O=C(NCC(c1scnc1C(F)F)N1CCC(Oc2nc(C3CC3)ns2)CC1)c1c(F)cccc1Cl (stereo not drawn) [Example 13, 2-Chloro-N-(2-{4-[(3-cyclopropyl-1,2,4-thiadiazol-5-yl)oxy]piperidin-1-yl}-2-[4-(difluoromethyl)-1,3-thiazol-5-yl]ethyl)-6-fluorobenzamide] | 7.72 | 9.7 fold | 7.48
9 | O=C(NCC(c1scnc1C(F)F)N1CCC(Oc2ccnc(F)c2)CC1)c1c(F)cccc1Cl (stereo not drawn) [Example 80, 2-Chloro-N-{2-[4-(difluoromethyl)-1,3-thiazol-5-yl]-2-{4-[(2-fluoropyridin-4-yl)oxy]piperidin-1-yl}ethyl}-6-fluorobenzamide] | 7.69 | 6.0 fold | 7.43
10 | O=C(NCC(c1scnc1C(F)F)N1CCC(Oc2ccc(F)nn2)CC1)c1c(F)cccc1Cl (stereo not drawn) [Example 32, 2-Chloro-N-{2-[4-(difluoromethyl)-1,3-thiazol-5-yl]-2-{4-[(6-fluoropyridazin-3-yl)oxy]piperidin-1-yl}ethyl}-6-fluorobenzamide] | 7.67 | 6.0 fold | 7.09
